From ChEMBL document CHEMBL1201862, “PubChem BioAssay data set” (2004)
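Method: 48-hour compound exposure of cells in 96-well plates, five concentrations, linear interpolation of endpoints. GI50 marks 50% less growth.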 Calls of active or inactive are those of the source. No stated cut-off is given here; in the data, active = GI50 up to about 1.1 µM and inactive = higher.

Assays:
Assay in all cases: DTP human tumour cell line panel, 48 h
SK-OV-3 = tested on: SK-OV-3
786-0 = tested on: 786-0
SNB-75 = tested on: SNB-75
EKVX = tested on: EKVX
SW-620 = tested on: SW-620
SN12C = tested on: SN12C
MCF7 = tested on: MCF7
TK-10 = tested on: TK-10
NCI-H226 = tested on: NCI-H226
HOP-62 = tested on: HOP-62
CAKI-1 = tested on: CAKI-1
SF-295 = tested on: SF-295
BT-549 = tested on: BT-549
T47D = tested on: T47D
U-251 = tested on: U-251
OVCAR-5 = tested on: OVCAR-5
KM12 = tested on: KM12

Measured: GI50

O=[N+]([O-])c1ccc2[nH]c(-c3ccc(Cl)cc3)nc2c1
inactive: SK-OV-3 24 µM | 786-0 33 µM | SNB-75 25 µM | EKVX 14.4 µM | SW-620 32.7 µM | SN12C 29.7 µM | MCF7 18.7 µM | TK-10 32.6 µM | NCI-H226 22.3 µM | HOP-62 21.5 µM | CAKI-1 31.1 µM | SF-295 20.3 µM | BT-549 29.7 µM | T47D 24.6 µM

CC1(C)C/C(=N/O)c2c(nc3ccc4ccccc4c3c2-c2ccc(Cl)cc2)C1
inactive: SK-OV-3 15 µM | 786-0 3.79 µM | U-251 11.5 µM | SNB-75 16.2 µM | EKVX 15.7 µM | OVCAR-5 40.7 µM | SW-620 18.3 µM | KM12 42 µM | SN12C 10.8 µM | MCF7 11.2 µM | TK-10 16.1 µM | NCI-H226 21 µM | HOP-62 23.2 µM | CAKI-1 13.5 µM | SF-295 10.9 µM | BT-549 10.6 µM | T47D 12.1 µM

CC(=O)N1C(Nc2ccccc2)CCN1c1ccccc1 (centres undefined)
inactive: SK-OV-3 > 10 µM | 786-0 > 10 µM | SNB-75 > 10 µM | EKVX > 10 µM | OVCAR-5 > 10 µM | SW-620 5.64 µM | SN12C > 10 µM | MCF7 > 10 µM | TK-10 > 10 µM | NCI-H226 > 10 µM | HOP-62 > 10 µM | CAKI-1 8.73 µM | SF-295 3.96 µM | BT-549 > 10 µM | T47D > 10 µM

O/N=C(\CC(O)(C(F)(F)F)C(F)(F)F)c1cccs1
inactive: SK-OV-3 > 10 µM | 786-0 > 10 µM | U-251 > 10 µM | SNB-75 7.46 µM | EKVX > 10 µM | OVCAR-5 > 10 µM | SW-620 > 10 µM | KM12 > 10 µM | SN12C > 10 µM | MCF7 > 10 µM | TK-10 > 10 µM | NCI-H226 > 10 µM | HOP-62 > 10 µM | CAKI-1 > 10 µM | SF-295 > 10 µM | BT-549 > 10 µM | T47D > 10 µM

O=C1NC(N2CCCC(CO)C2)=N/C1=C\c1cccs1 (centres undefined)
inactive: SK-OV-3 > 100 µM | 786-0 > 100 µM | U-251 > 100 µM | SNB-75 98.2 µM | EKVX > 100 µM | OVCAR-5 > 100 µM | SW-620 > 100 µM | KM12 > 100 µM | SN12C > 100 µM | MCF7 > 100 µM | TK-10 > 100 µM | NCI-H226 > 100 µM | HOP-62 > 100 µM | CAKI-1 > 100 µM | SF-295 > 100 µM | BT-549 > 100 µM | T47D > 100 µM

CCOC(=O)c1c(N2CCCC2)[nH]c(=O)c(C(c2ccc(N(C)C)cc2)c2c(O)c(C(=O)OCC)c(N3CCCC3)[nH]c2=O)c1O
inactive: SK-OV-3 > 100 µM | 786-0 > 100 µM | U-251 > 100 µM | SNB-75 48.5 µM | EKVX > 100 µM | OVCAR-5 > 100 µM | SW-620 > 100 µM | KM12 > 100 µM | SN12C > 100 µM | MCF7 > 100 µM | TK-10 94.2 µM | NCI-H226 > 100 µM | HOP-62 > 100 µM | CAKI-1 > 100 µM | SF-295 > 100 µM | BT-549 30.4 µM | T47D > 100 µM

O=[N+]([O-])c1ccc2c(/N=N/c3ccc4ccccc4c3O)c(O)cc(S(=O)(=O)O)c2c1
inactive: SK-OV-3 18.7 µM | 786-0 18.7 µM | U-251 7.41 µM | SNB-75 26.7 µM | EKVX 14.7 µM | OVCAR-5 15.1 µM | SW-620 18.7 µM | KM12 31.8 µM | SN12C 38.5 µM | MCF7 30.3 µM | TK-10 > 65.3 µM | NCI-H226 4.66 µM | HOP-62 24.9 µM | CAKI-1 12.6 µM | SF-295 32 µM | BT-549 25.7 µM | T47D 20.4 µM
